Patent US12611423B2, “Medical use of tafoxiparin” (DILAFOR AB, priority 2022, dated 2026)

System: term pregnant, nulliparous women with an unripe cervix
Test: Clinical phase II trial PPL17 (Parts A and B), subcutaneous tafoxiparin vs placebo
Format: in vivo, human
Conditions: for women achieving spontaneous onset of labor (FIG. 1): placebo 28.7%; for number of subjects (women) that reach spontaneous onset of labor / subjects (women) that reach spontaneous onset of labor, % of n: cumulative
Description: A clinical phase II trial is performed as a randomized, double-blind, placebo-controlled, parallel-group proof of concept study (Part A) with a conditional dose finding follow up study (Part B) to evaluate the efficacy, safety, tolerability and dose response of subcutaneously administered tafoxiparin as a supplement to induction therapy in term pregnant, nulliparous women with an unripe cervix. The study is performed in Sweden and Finland (PPL17), and an EMA (European Medicines Agency) description of the study can be found on the EU Clinical Trials Register web (www.clinicaltrialsregister.eu/ctr-search/search?query=PPL17).
A total of 170 term pregnant women are randomized to receive either 300 mg of tafoxiparin, or corresponding placebo (vehicle), administered subcutaneously every 24±3 hours and up to a total of 7 doses, or until partus (Part A).
In the dose finding follow up study (Part B), a total of 164 term pregnant women are randomized to receive either 75 or 150 mg of tafoxiparin administered subcutaneously every 24±3 hours […] and up to a total of 7 doses, or until partus.
To assess the efficacy of tafoxiparin on cervical ripening/cervical ripening rate, during and up to the first seven days of treatment, measured by Bishop score. All women must be examined to check the cervical state before enrollment.
Tafoxiparin/Placebo is supplied by Dilafor AB to the site as kits designed to constitute 300 mg of tafoxiparin or placebo for daily administration. Apart from the active substance, each ml of study drug will constitute 0.015 M phosphate buffer. The study medication kit for each patient will contain 8 doses consisting of 2 vials containing a minimum extractable volume of 1.6 ml of 150 mg/ml of tafoxiparin or placebo. One dose is a reserve dose in case a dose is rendered unusable. The investigational product should be administered subcutaneously every 24±3 hours by the site staff for up to 7 doses, or until partus. At each dosing time 1.0 ml of the drug will be extracted from each of the 2 vials and injected as separate s.c. injections in the abdominal or hip region.
Tafoxiparin/Placebo is supplied by Dilafor AB to the site as kits designed to constitute 75 or 150 mg of tafoxiparin for daily administration. Apart from the active substance, each ml of study drug will constitute 0.015 M phosphate buffer. The study medication kit for each patient will contain 8 doses consisting of 2 vials for each injection occasion containing a minimum extractable volume of 1.6 ml of 150 mg/ml of tafoxiparin or placebo. For subjects receiving 75 mg of tafoxiparin, one vial will contain active substance and one containing placebo. For subjects receiving 150 mg of tafoxiparin, both vials will contain active substance. One dose is a reserve dose in case a dose is rendered unusable. The investigational product should be administered subcutaneously every 24±3 hours by the site staff for up to 7 doses, or until partus. At each dosing time, 0.5 ml of the drug will be extracted from each of the 2 vials and injected as separate s.c. injections in the abdominal or hip region.
If the subject is found to be eligible for the study, they will be randomized to study treatment, i.e. 300 mg of tafoxiparin or corresponding placebo daily (Part A), or 75 or 150 mg daily (Part B).
The study medication will be administered subcutaneously in the abdominal or hip region for up to a total of 7 doses or until labor induction or spontaneous onset of labor. If the cervix is still unripe after 7 doses of IMP, the patient is given cervical balloon catheter as a mean of labor induction.
Subjects who enter into spontaneous onset of labor after 1-7 doses of IMP should be managed according to clinical routines.
Subjects who are given 4-7 doses without entering into spontaneous onset of labor, but with a ripe cervix (Bishop Score ≥6), should be induced into labor by amniotomy and oxytocin treatment, but not before 4 treatment doses have been given. […]

tafoxiparin
women achieving spontaneous onset of labor (FIG. 1) (75 mg s.c. once daily up to 7 doses, 33 women of 82, p-value 0.102): 40.2% | women reaching spontaneous onset of labor with uncomplicated delivery (75 mg, 22 of the 29 women, placebo 54.5%): 75.9% | number of subjects (women) that reach spontaneous onset of labor (75 mg, Study day 1, n = 33): 0 | subjects (women) that reach spontaneous onset of labor, % of n (75 mg, Study day 1, n = 33): (0%) | number of subjects (women) that reach spontaneous onset of labor (75 mg, Study day 2, n = 33): 3 | subjects (women) that reach spontaneous onset of labor, % of n (75 mg, Study day 2, n = 33): (9%) | number of subjects (women) that reach spontaneous onset of labor (75 mg, Study day 3, n = 33): 6 | subjects (women) that reach spontaneous onset of labor, % of n (75 mg, Study day 3, n = 33): (18%) | number of subjects (women) that reach spontaneous onset of labor (75 mg, Study day 4, n = 33): 11 | subjects (women) that reach spontaneous onset of labor, % of n (75 mg, Study day 4, n = 33): (33%) | number of subjects (women) that reach spontaneous onset of labor (75 mg, Study day 5, n = 33): 22 | subjects (women) that reach spontaneous onset of labor, % of n (75 mg, Study day 5, n = 33): (67%) | number of subjects (women) that reach spontaneous onset of labor (75 mg, Study day 6, n = 33): 25 | subjects (women) that reach spontaneous onset of labor, % of n (75 mg, Study day 6, n = 33): (76%) | number of subjects (women) that reach spontaneous onset of labor (75 mg, Study day 7, n = 33): 32 | subjects (women) that reach spontaneous onset of labor, % of n (75 mg, Study day 7, n = 33): (97%) | number of subjects (women) that reach spontaneous onset of labor (75 mg, Study day 8, n = 33): 33 | subjects (women) that reach spontaneous onset of labor, % of n (75 mg, Study day 8, n = 33): (100%) | Fetal distress as indication for operative delivery (ODFD), number of women (75 mg, n = 83): 16 | Labor induced with PGE-1, number of women (75 mg, n = 83): 7 | Labor induced with amniotomy, number of women (75 mg, n = 83): 46 | Labor induced with oxytocin, number of women (75 mg, n = 83): 34 | Labor induced, number of women (75 mg, n = 83): 48 | Labor induction with Balloon catheter, number of women (75 mg, n = 83): 35 | Number of patients with operative delivery (75 mg, n = 83): 32 | Labor induced with PGE-1, % of women (75 mg, n = 83, placebo 10.2%): 8.4% | Fetal distress as indication for operative delivery (ODFD), % of women (75 mg, n = 83, placebo 22.7%): 19.3% | patients with operative delivery, % (75 mg, n = 83, placebo 45.5%): 38.6% | Labor induced with oxytocin, % of women (75 mg, n = 83, placebo 54.5%): 41.0% | Labor induced with amniotomy, % of women (75 mg, n = 83, placebo 56.8%): 55.4% | Labor induction with Balloon catheter, % of women (75 mg, n = 83, placebo 58.0%): 42.2% | Labor induced, % of women (75 mg, n = 83, placebo 70.5%): 57.8% | women needing instrumental delivery (FIG. 4, vaginal mode of partus) (75 mg, women with spontaneous onset of labor, 7 of the 29 women, p-value=0.181, placebo 45.5%): 24.1% | women needing instrumental delivery or caesarian section to reach partus (FIG. 5) (75 mg, women with spontaneous onset of labor, 11 of 33 women, placebo 52%): 33.3% | women reaching partus by vaginal delivery with no need for instrumental delivery nor caesarian section (FIG. 5) (75 mg, women with spontaneous onset of labor, 22 of 33 women, placebo 48%): 66.7% | women achieving spontaneous onset of labor (FIG. 1) (150 mg s.c. once daily up to 7 doses, 36 women of 85, p-value 0.039): 42.4% | women reaching spontaneous onset of labor with uncomplicated delivery (150 mg, 23 of the 32 women, placebo 54.5%): 71.9% | number of subjects (women) that reach spontaneous onset of labor (150 mg, Study day 1, n = 36): 0 | subjects (women) that reach spontaneous onset of labor, % of n (150 mg, Study day 1, n = 36): (0%) | number of subjects (women) that reach spontaneous onset of labor (150 mg, Study day 2, n = 36): 4 | subjects (women) that reach spontaneous onset of labor, % of n (150 mg, Study day 2, n = 36): (11%) | number of subjects (women) that reach spontaneous onset of labor (150 mg, Study day 3, n = 36): 15 | subjects (women) that reach spontaneous onset of labor, % of n (150 mg, Study day 3, n = 36): (42%) | number of subjects (women) that reach spontaneous onset of labor (150 mg, Study day 4, n = 36): 19 | subjects (women) that reach spontaneous onset of labor, % of n (150 mg, Study day 4, n = 36): (53%) | number of subjects (women) that reach spontaneous onset of labor (150 mg, Study day 5, n = 36): 26 | subjects (women) that reach spontaneous onset of labor, % of n (150 mg, Study day 5, n = 36): (72%) | number of subjects (women) that reach spontaneous onset of labor (150 mg, Study day 6, n = 36): 30 | subjects (women) that reach spontaneous onset of labor, % of n (150 mg, Study day 6, n = 36): (83%) | number of subjects (women) that reach spontaneous onset of labor (150 mg, Study day 7, n = 36): 34 | subjects (women) that reach spontaneous onset of labor, % of n (150 mg, Study day 7, n = 36): (94%) | number of subjects (women) that reach spontaneous onset of labor (150 mg, Study day 8, n = 36): 35 | subjects (women) that reach spontaneous onset of labor, % of n (150 mg, Study day 8, n = 36): (97%) | number of subjects (women) that reach spontaneous onset of labor (150 mg, Study day 9, n = 36): 36 | subjects (women) that reach spontaneous onset of labor, % of n (150 mg, Study day 9, n = 36): (100%) | Fetal distress as indication for operative delivery (ODFD), number of women (150 mg, n = 85): 20 | Labor induced with PGE-1, number of women (150 mg, n = 85): 7 | Labor induced with amniotomy, number of women (150 mg, n = 85): 39
